Consider 8 compounds from PubChem BioAssay (NCI).

Experiment in all cases: inhibition of tumour cell growth, NCI panel, 48 h
Assay [1] relates to CAKI-1 renal.
Assay [2] concerns EKVX NSCLC.
Assay [3] deals with HT29 colon.
In assay [4] the test system is KM12 colon.
Assay [5] has as its system MOLT-4 leukemia.
Assay [6] deals with OVCAR-3 ovarian.
Assay [7] has as its system RXF 393 renal.
Assay [8] relates to SK-OV-3 ovarian.
Assay [9] deals with SN12C renal.
In assay [10] the test system is UACC-62 melanoma.

Where “and” joins values, the source holds several entries; their conditions need not be identical. Equal values may be shown once.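 1) Cells in 96-well plates. 2) Compound, 48 h, 5 concentrations. 3) Linear interpolation between surrounding doses. 4) Unreached endpoint = highest concentration. The concentration for 50% growth inhibition is given as GI50. At the TGI there is no net growth.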

Take `CCCCCCCCC/C(=N\NC(=O)c1ccncc1)c1ccc(O)c(O)c1O`: the GI50 in assay [1] was 0.088 µM; in assay [2] it was 0.244 µM; in assay [3] it was 0.513 µM; in assay [4], 0.348 µM; in assay [5], 0.246 µM; in assay [6], 0.0616 µM. The GI50 is 0.168 µM in assay [7], 0.246 µM in assay [8], 0.207 µM in [9] and 0.188 µM in [10]. In addition, the TGI in assay [1] is more than 100 µM; in [2], more than 100 µM; in assay [3], 32.9 µM; in assay [4], more than 100 µM; in assay [5] it was 25.3 µM; in assay [6], more than 35.7 µM. Besides, the TGI in assay [7] is 5.2 µM; in assay [8], more than 100 µM; in assay [9], 35 µM; in [10], 3.3 µM.
Turning to `C=C1C(=O)O[C@H]2C[C@@H]1CC/C(C)=C/CC/C(C)=C/CC[C@@]2(C)O`, the GI50 was 34.6 µM in assay [1]; more than 100 µM in [2]; 34.6 µM in assay [3]; more than 100 µM in assay [4]; 24.5 µM in assay [5]; 51 µM in assay [6]. The GI50 in assay [7] is more than 100 µM; in assay [8], more than 100 µM; in assay [9], 24.9 µM; in assay [10], 44.1 µM. Moreover, the TGI in assay [1], in [2], in assay [3], in assay [4], in [5] and in assay [6] was more than 100 µM in each case. The TGI was more than 100 µM in [7], more than 100 µM in [8], 65.7 µM in [9] and more than 100 µM in assay [10].
`O=C1NC2C(=CC(O)C(O)C2O)c2cc3c(cc21)OCO3` (stereo not given): the GI50 is 0.331 µM and 0.158 µM in assay [1]; 0.285 µM in [2]; 0.273 µM in assay [3]; 0.336 µM and 0.129 µM in assay [4]; 0.305 µM and 0.454 µM in assay [5]; 0.441 µM in [6]. For the same compound, the GI50 in assay [7] was 0.589 µM; in assay [8] it was 0.232 µM and 0.272 µM; in assay [9], 0.156 µM; in assay [10], 0.266 µM. Also, the TGI is 1.7 µM and 1.8 µM in [1]; 3.06 µM and 2.29 µM in [2]; 3.58 µM and 5.95 µM in assay [3]; 1.75 µM and 3.53 µM in [4]; 0.511 µM and 1.24 µM in assay [5]; 2.36 µM and 1.42 µM in [6]. Besides, the TGI is 0.805 µM and 1.43 µM and 2.16 µM in assay [7]; 7.09 µM and 4.31 µM in [8]; 2.59 µM and 2.29 µM in assay [9]; 2.56 µM and 1.65 µM in assay [10].
For `S=C(NCCNC(=S)[S][Sn]([c]1ccccc1)([c]1ccccc1)[c]1ccccc1)[S][Sn]([c]1ccccc1)([c]1ccccc1)[c]1ccccc1`, the GI50 in [1] was 0.0386 µM; in assay [2], 0.0304 µM; in assay [3] it was 0.019 µM; in [4], 0.0197 µM; in assay [5] it was 0.0222 µM; in [6] it was 0.0145 µM. Also, the GI50 in assay [7] was 0.01 µM; in assay [8], 0.0231 µM; in [9], 0.0325 µM; in [10] it was 0.0231 µM. Also, the TGI turned out to be 0.146 µM in [1]; 0.129 µM in [2]; 0.0584 µM in [3]; 0.0652 µM in assay [4]; 0.309 µM in [5]; 0.0384 µM in [6]. The TGI in [7] stood at 0.0206 µM; in [8], 0.0799 µM; in [9] it was 0.218 µM; in assay [10], 0.104 µM.
Take `c1ccc2cc(NCNc3ccc4ccccc4c3)ccc2c1`: the TGI in assay [1] was 42.7 µM; in [2], 65.5 µM; in [3] it was 41.3 µM; in assay [4], 38.7 µM; in [5], 29.9 µM; in assay [6], 29.2 µM. The TGI was 29.9 µM in assay [7], more than 100 µM in assay [8], 25.8 µM in assay [9] and 30.7 µM in [10].
`Cc1nc(-c2nc(-c3ccc(OC(F)(F)F)cc3)no2)nn1Cc1cccc(N2CCC(S(C)(=O)=O)CC2)c1`: the GI50 in assay [1] was 3.28 µM; in assay [2] it was 1.6 µM; in assay [3], more than 25 µM; in assay [4], more than 52.6 µM; in assay [5], 3.3 µM; in assay [6] it was 11.6 µM. In addition, the GI50 was 5.88 µM in [7], 16.3 µM in assay [8], more than 31.1 µM in assay [9] and 3.51 µM in assay [10]. In addition, the TGI was 29.8 µM in assay [1]; 48.6 µM in assay [2]; more than 100 µM in assay [3]; more than 100 µM in [4]; more than 100 µM in [5]; more than 100 µM in [6]. In addition, the TGI in [7] is 44.4 µM; in [8], 89.8 µM; in assay [9] it was more than 100 µM; in assay [10], more than 100 µM.
As for `O=C([O][Hg][CH2]C1OCCOC1[CH2][Hg][O]C(=O)c1ccccc1)c1ccccc1` (stereo not given), the GI50 in assay [1] was 1.74 µM; in assay [2], 18.3 µM; in assay [3], 5.77 µM; in assay [4], 16.3 µM; in assay [5], 2.13 µM; in [6], 2.16 µM. Further, the GI50 in assay [7] is 2.08 µM; in assay [8], 19.4 µM; in [9], 13.2 µM; in assay [10], 16.5 µM. Further, the TGI in [1] came to 3.12 µM; in assay [2], 35.5 µM; in assay [3] it was 10.6 µM; in assay [4], 30.1 µM; in assay [5], 5.37 µM; in [6], 3.8 µM. The TGI turned out to be 4.06 µM in assay [7], 34.1 µM in assay [8], 27.9 µM in assay [9] and 30.3 µM in [10].
`Nc1nc(N)c(-c2ccccc2)c(C(=O)Nc2ccccc2)n1`: the TGI in assay [1], in [2], in assay [3], in assay [4], in assay [5] and in [6] was more than 100 µM throughout. In addition, the TGI in assay [7], in assay [8], in [9] and in assay [10] was more than 100 µM in each case.
